Reference: patent US12435087B2, “Modulators of DCN-1 and methods of use thereof” (Cellarity, Inc., priority 2023, dated 2025)
Where two headings read alike, the source gives them in different places.

Biological target: DCN1 (DCUND1) protein PONY domain (Homo sapiens (Human), UniProt Q96GG9)
Assay: TR-FRET assay (binding to DCN-1, displacement of FAM-labeled probe)
Excerpt: (§1) The TR-FRET assay was designed following the Scott et al. protocol (Scott et al., Nat Chem Biol. 2017 August; 13(8): 850-857. doi:10.1038/nchembio.2386). The recombinant form of the DCN1 (DCUND1) protein PONY domain was produced using an E. coli expression system at Viva Biotech (China). The DCN1 protein was biotinylated (EZ sulfo-NHS-LC-biotin; Thermofisher) for labeling with streptavidin terbium (Tb) cryptate in the reaction. The probe was changed to a non-covalent DCN1 inhibitor labeled with carboxyfluorescein (FAM; Zhou et al., Nat Commun. 2017; 8: 1150. doi: 10.1038/s41467-017-01243-7). Buffer conditions were modified to enhance protein stability by exchanging Tween20 for TritonX and increasing NaCl to 200 mM. The compounds were screened against 5 nM DCN1 and 20 nM FAM-probe or 0.31 nM DCN1 and 900 nM total probe (100 nM FAM-labeled plus 800 nM unlabeled). The TR-FRET ratio between Tb-DCN1 and the FAM-labeled probe was measured in a 384-well opti-plate (Perkin Elmer) using a plate reader (BMG) at 1, 5, and 24 hrs after treatment with compound (final DMSO concentration of 0.1%). The ratio was normalized to the high (DCN1 and FAM-probe) and low (DCN1 and no probe) controls for a readout of % activity (=100*(x−low)/(high−low).
A TR-FRET assay was performed to evaluate the ability of the compounds to bind the DCN-1 protein.
as §1, with “850-857. Doi: 10.1038/nchembio.2386).” for “850-857. doi:10.1038/nchembio.2386).”, “the DCNI” for “the DCN1”, “1150. Doi:” for “1150. doi:”, “0.1%).” for “0.1%). The ratio was normalized to the high (DCN1 and FAM-probe) and low (DCN1 and no probe) controls for a readout of % activity (=100*(x−low)/(high−low).”

[1] = 24 hr after treatment with compound, read-out: TR FRET IC50 24 hr
[2] = TR FRET IC50 1 hr (nM), 1 hr after treatment with compound
[3] = read-out: TR FRET IC50 1 hr, 1 hr after treatment with compound

Sequence of DCN1 (DCUND1) protein PONY domain (Q96GG9 60-248): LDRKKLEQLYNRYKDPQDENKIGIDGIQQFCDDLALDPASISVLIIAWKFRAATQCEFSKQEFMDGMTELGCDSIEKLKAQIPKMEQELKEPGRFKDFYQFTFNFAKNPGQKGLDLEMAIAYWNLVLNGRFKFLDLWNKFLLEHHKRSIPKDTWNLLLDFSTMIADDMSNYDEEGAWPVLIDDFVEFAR

SMILES | IC50 [1] | IC50 [2] | IC50 [3]
C/C=C(\CN1CCC1)C(=O)NCc1cccc([C@@H]2c3cnn(-c4ccccc4)c3N(CC)C(=O)[C@H]2NC(=O)c2ccn(C3CC3)n2)c1 [Compound I-309] | ≤ 200 nM | ≤ 200 nM | –
CCN1C(=O)[C@@H](NC(=O)c2nccc(C(F)(F)F)n2)[C@H](c2cccc(CNC(=O)C(COC)CN3CCC(F)(F)C3)c2)c2cnn(-c3ccccc3)c21 (some centres unmarked) [Compound I-360] | 1000 to 3000 nM | 1000 to 3000 nM | –
C=C(CN(C)C1COC1)C(=O)NCc1cccc([C@@H]2c3c(C)nn(-c4ccccc4)c3N(CC)C(=O)[C@H]2NC(=O)c2cccc(C(F)(F)F)c2)c1 [Compound I-312] | ≤ 200 nM | – | ≤ 200 nM
C/C=C(\CN1CCOCC1)C(=O)NCc1cccc([C@@H]2c3cnn(-c4ccccc4)c3N(CC)C(=O)[C@H]2NC(=O)c2ccn(C3CC3)n2)c1 [Compound I-241] | ≤ 200 nM | 1000 to 3000 nM | –
C=C(CN1CC2CC1CO2)C(=O)NCc1cccc([C@@H]2c3cnn(-c4ccccc4)c3N(CC)C(=O)[C@H]2NC(=O)c2cccc(C(F)(F)F)c2)c1 (some centres unmarked) [Compound I-7] | ≤ 200 nM | – | ≤ 200 nM
CCC(=O)NCc1cccc([C@@H]2c3cnn(-c4ccccc4)c3N(CC)C(=O)[C@H]2NC(=O)c2nccc(C(F)(F)F)n2)c1 [Compound I-358] | 1000 to 3000 nM | 1000 to 3000 nM | –
CC#CC(=O)N(C)c1ccccc1[C@H]1c2cnn(-c3ccccc3)c2N(CC)C(=O)[C@@H]1NC(=O)c1cccc(C(F)(F)F)c1 (racemic) [Compound I-98, ˜{N}—[˜{rac}-(4˜{S},5˜{R})-4-[2-[but-2-ynoyl(methyl)amino]phenyl]-7-ethyl-6-oxo-1-phenyl-4,5-dihydropyrazolo[3,4-b]pyridin-5-yl]-3-(trifluoromethyl)benzamide] | 1000 to 3000 nM | 1000 to 3000 nM | –
CCN1C(=O)[C@@H](NC(=O)c2cccc(C(F)(F)F)c2)[C@H](c2cccc(CNC(=O)C(C)Cl)c2)c2cnn(-c3ccccc3)c21 (mixture of isomers) [Compound I-112] | 1000 to 3000 nM | 1000 to 3000 nM | –
CCN1C(=O)[C@@H](NC(=O)c2cccc(C(F)(F)F)c2)[C@H](c2cccc(CN(C)C#N)c2)c2cnn(-c3ccccc3)c21 (racemic) [Compound I-104] | 1000 to 3000 nM | 1000 to 3000 nM | –
CCN1C(=O)[C@H](NC(=O)c2cccc(C(F)(F)F)c2)[C@@H](c2cccc(CNC(=O)C3=CCN(C)C3)c2)c2c(C)nn(-c3ccccc3)c21 [Compound I-362, N-(3-((4S,5R)-7-ethyl-3-methyl-6-oxo-1-phenyl-5-(3-(trifluoromethyl)benzamido)-4,5,6,7-tetrahydro-1H-pyrazolo[3,4-b]pyridin-4-yl)benzyl)-1-methyl-2,5-dihydro-1H-pyrrole-3-carboxamide] | 1000 to 3000 nM | 1000 to 3000 nM | –
CCN1C(=O)[C@@H](NC(=O)c2cccc(C(F)(F)F)c2)[C@H](c2cncc(NC(=O)C3=CCC3)c2)c2cnn(-c3ccccc3)c21 [Compound I-319] | 200 to 1000 nM | 1000 to 3000 nM | –
C=C(CN1CCOCC1)C(=O)N(C)Cc1cccc([C@@H]2c3cnn(-c4ccccc4)c3N(CC)C(=O)[C@H]2NC(=O)c2ccn(C(F)(F)F)n2)c1 [Compound I-295] | ≤ 200 nM | 1000 to 3000 nM | –
CCN1C(=O)[C@H](NC(=O)c2cccc(C(F)(F)F)c2)[C@@H](c2cccc(NC(=O)C3=CCC3)c2)c2c(C)nn(-c3ccccc3)c21 [Compound I-94, N-((4S,5R)-4-(3-(cyclobut-1-ene-1-carboxamido)phenyl)-7-ethyl-3-methyl-6-oxo-1-phenyl-4,5,6,7-tetrahydro-1H-pyrazolo[3,4-b]pyridin-5-yl)-3-(trifluoromethyl)benzamide] | 1000 to 3000 nM | – | 1000 to 3000 nM
C=C(CC(=O)OC)C(=O)Nc1cccc([C@@H]2c3c(C)nn(-c4ccccc4)c3N(CC)C(=O)[C@H]2NC(=O)c2cccc(C(F)(F)F)c2)c1 (racemic) [Compound I-41] | 1000 to 3000 nM | 1000 to 3000 nM | –
C/C=C(\CN1CCN(C2COC2)CC1)C(=O)N(C)Cc1cccc([C@@H]2c3cnn(-c4ccccc4)c3N(CC)C(=O)[C@H]2NC(=O)c2ccn(C(F)(F)F)n2)c1 [Compound I-237, N-((4R,5S)-7-ethyl-4-(3-(((E)-N-methyl-2-((4-(oxetan-3-yl)piperazin-1-yl)methyl)but-2-enamido)methyl)phenyl)-6-oxo-1-phenyl-4,5,6,7-tetrahydro-1H-pyrazolo[3,4-b]pyridin-5-yl)-1-(trifluoromethyl)-1H-pyrazole-3-carboxamide] | 200 to 1000 nM | 1000 to 3000 nM | –
C/C=C(/CN1CCN(C2COC2)CC1)C(=O)NCc1cccc([C@@H]2c3cnn(-c4ccccc4)c3N(CC)C(=O)[C@H]2NC(=O)c2nccc(C(F)(F)F)n2)c1 (racemic) [Compound I-257] | 1000 to 3000 nM | 1000 to 3000 nM | –
C=CC(=O)NCc1cccc([C@@H]2c3cnn(-c4ccccc4)c3N(CC)C(=O)[C@H]2NC(=O)c2cccc(C(F)(F)F)c2)c1 (racemic) [Compound I-111] | 1000 to 3000 nM | 1000 to 3000 nM | –
C/C=C(\CN1CCC1)C(=O)NCc1cccc([C@@H]2c3cnn(-c4ccccc4)c3N(CC)C(=O)[C@H]2NC(=O)c2cccc(C(F)(F)F)c2)c1 [Compound I-341] | ≤ 200 nM | 200 to 1000 nM | –
CCN1C(=O)[C@@H](NC(=O)c2cccc(C(F)(F)F)c2)[C@H](c2cccc(CN(C)C/C=C/C(=O)N3CCCC3)c2)c2cnn(-c3ccccc3)c21 [Compound I-255] | 1000 to 3000 nM | 1000 to 3000 nM | –
C=C(C(=O)NCc1cccc([C@@H]2c3cnn(-c4ccccc4)c3N(CC)C(=O)[C@H]2NC(=O)c2ccn(CCF)n2)c1)C(C)N(C)C1COC1 (some centres unmarked) [Compound I-334] | ≤ 200 nM | 200 to 1000 nM | –
CCN1C(=O)[C@H](NC(=O)c2cccc(C(F)(F)F)c2)[C@@H](c2ccccc2N(C)C#N)c2cnn(-c3ccccc3)c21 (racemic) [Compound I-90, ˜{N}—[˜{rac}-(4˜{S},5˜{R})-4-[2-[cyano(methyl)amino]phenyl]-7-ethyl-6-oxo-1-phenyl-4,5-dihydropyrazolo[3,4-b]pyridin-5-yl]-3-(trifluoromethyl)benzamide] | 1000 to 3000 nM | 1000 to 3000 nM | –
C=C(C(=O)NCc1cccc([C@@H]2c3cnn(-c4ccccc4)c3N(CC)C(=O)[C@@H]2NC(=O)c2nccc(C(F)(F)F)n2)c1)C(C)N1CC2(COC2)C1 (stereo partly drawn) [Compound I-377, N-((4R,5R)-7-ethyl-4-(3-((2-methylene-3-(2-oxa-6-azaspiro[3.3]heptan-6-yl)butanamido)methyl)phenyl)-6-oxo-1-phenyl-4,5,6,7-tetrahydro-1H-pyrazolo[3,4-b]pyridin-5-yl)-4-(trifluoromethyl)pyrimidine-2-carboxamide] | 200 to 1000 nM | 1000 to 3000 nM | –
C=C(CN1CC2(COC2)C1)C(=O)NCc1cccc([C@H]2c3cnn(-c4ccccc4)c3N(CC)C(=O)[C@H]2NC(=O)c2cccc(C(F)(F)F)c2)c1 [Compound I-156] | 200 to 1000 nM | 1000 to 3000 nM | –
CCN1C(=O)[C@H](NC(=O)c2cccc(C(F)(F)F)c2)[C@@H](c2ccccc2-n2sccc2=O)c2cnn(-c3ccccc3)c21 (racemic) [Compound I-89, ˜{N}—[˜{rac}-(4˜{S},5˜{R})-7-ethyl-6-oxo-4-[2-(3-oxoisothiazol-2-yl)phenyl]-1-phenyl-4,5-dihydropyrazolo[3,4-b]pyridin-5-yl]-3-(trifluoromethyl)benzamide] | 1000 to 3000 nM | 1000 to 3000 nM | –
C=C(CN1CCC12COC2)C(=O)NCc1cccc([C@@H]2c3cnn(-c4ccccc4)c3N(CC)C(=O)[C@H]2NC(=O)c2ccn(C(F)(F)F)n2)c1 [Compound I-247] | ≤ 200 nM | 200 to 1000 nM | –
C=C(CN1CCC(F)(F)C1)C(=O)NCc1cccc([C@H]2c3cnn(-c4ccccc4)c3N(CC)C(=O)[C@@H]2NC(=O)c2cccc(C(F)(F)F)c2)c1 [Compound I-102] | 1000 to 3000 nM | 1000 to 3000 nM | –
C=C(CN1C[C@@H]2C[C@H]1CO2)C(=O)NCc1cccc([C@@H]2c3cnn(-c4ccccc4)c3N(CC)C(=O)[C@H]2NC(=O)c2nccc(C(F)(F)F)n2)c1 (mixture of isomers) [Compound I-160] | ≤ 200 nM | – | ≤ 200 nM
CCC(=O)NCc1cccc([C@@H]2c3cnn(-c4ccccc4)c3N(CC)C(=O)[C@H]2NC(=O)c2ccn(C(F)(F)F)n2)c1 [Compound I-335] | 200 to 1000 nM | 1000 to 3000 nM | –
